Experimental data as given in patent US9643970B2, “Substituted imidazo [1,5-a]pyrazines as PDE9 inhibitors” (H Lundbeck A/S, priority 2012, dated 2017).
pIC50: −log10 of the molar value. Where two headings read alike, the source gives them in different places.

Biological target: PDE9 (Homo sapiens, UniProt O76083)
Test: PDE9 inhibition assay
Format: biochemical
Protocol: Reactions are initiated by addition of the cyclic nucleotide substrate, and reactions are allowed to proceed for one hr at room temperature before being terminated through mixing with 15 uL 8 mg/mL yttrium silicate SPA beads (Amersham). […] IC50 values were calculated by non linear regression using XLfit (IDBS).

[1] = SPA assay, 10 nM 3H-cAMP, 1 hour incubation, read-out: IC50

Sequence of PDE9 (O76083 whole entry): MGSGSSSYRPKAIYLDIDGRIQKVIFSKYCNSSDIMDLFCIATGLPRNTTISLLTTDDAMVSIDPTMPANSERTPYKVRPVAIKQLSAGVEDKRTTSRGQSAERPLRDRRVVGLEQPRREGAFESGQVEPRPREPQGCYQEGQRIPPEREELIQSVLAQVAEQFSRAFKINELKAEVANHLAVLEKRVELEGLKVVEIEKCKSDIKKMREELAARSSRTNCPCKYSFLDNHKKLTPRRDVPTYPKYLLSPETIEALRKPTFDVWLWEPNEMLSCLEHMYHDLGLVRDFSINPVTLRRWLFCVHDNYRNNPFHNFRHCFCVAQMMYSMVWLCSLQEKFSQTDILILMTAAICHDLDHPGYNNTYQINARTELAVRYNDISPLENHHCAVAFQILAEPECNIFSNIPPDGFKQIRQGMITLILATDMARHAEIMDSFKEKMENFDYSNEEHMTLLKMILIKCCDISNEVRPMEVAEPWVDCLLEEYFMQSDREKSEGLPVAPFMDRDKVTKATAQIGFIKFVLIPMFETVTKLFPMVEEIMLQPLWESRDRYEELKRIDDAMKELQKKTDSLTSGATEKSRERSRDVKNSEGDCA

pIC50 [1] | pIC50 | Structure (SMILES)
7.05 | – | COC1CN(Cc2cn3c(-c4ccccc4)ncc3c(=O)[nH]2)C1 [Compound 3, 6-[(3-methoxyazetidin-1-yl)methyl]-3-phenyl-7h-imidazo[1,5-a]pyrazin-8-one]
7.85 | – | O=c1[nH]c(CN2CC(Oc3ccncc3)C2)cn2c(C3CCOCC3)ncc12 [Compound 82, 6-[[3-(4-pyridyloxy)azetidin-1-yl]methyl]-3-tetrahydropyran-4-yl-7h-imidazo[1,5-a]pyrazin-8-one]
7.77 | – | COC1CN(C(C)c2cn3c(-c4ccccc4)ncc3c(=O)[nH]2)C1 (stereo not drawn) [Compound 20, 6-[1-(3-methoxyazetidin-1-yl)ethyl]-3-phenyl-7h-imidazo[1,5-a]pyrazin-8-one]
7.82 | – | O=c1[nH]c(CN2CCC(Nc3ccccc3)C2)cn2c(C3CCOCC3)ncc12 (stereo not drawn) [Compound 66, 6-[(3-anilinopyrrolidin-1-yl)methyl]-3-tetrahydropyran-4-yl-7h-imidazo[1,5-a]pyrazin-8-one]
7.72 | – | CC1CN(Cc2ccccn2)CC1c1cn2c(C3CCOCC3)ncc2c(=O)[nH]1 (stereo not drawn) [Compound 81, 6-[4-methyl-1-(2-pyridylmethyl)pyrrolidin-3-yl]-3-tetrahydropyran-4-yl-7h-imidazo[1,5-a]pyrazin-8-one]
8.00 | – | Cc1cnc(CN2CC(C)C(c3cn4c(C5CCOCC5)ncc4c(=O)[nH]3)C2)cn1 (stereo not drawn) [Compound 102, 6-[4-methyl-1-[(5-methylpyrazin-2-yl)methyl]pyrrolidin-3-yl]-3-tetrahydropyran-4-yl-7h-imidazo[1,5-a]pyrazin-8-one]
7.74 | – | CC1CN(Cc2ccc(C#N)cc2)CC1c1cn2c(C3CCOCC3)ncc2c(=O)[nH]1 (stereo not drawn) [Compound 98, 4-[[3-methyl-4-(8-oxo-3-tetrahydropyran-4-yl-7h-imidazo[1,5-a]pyrazin-6-yl)pyrrolidin-1-yl]methyl]benzonitrile]
7.11 | – | O=c1[nH]c(CN2CC(c3ccccc3)C2)cn2c(-c3ccccc3)ncc12 [Compound 8, 3-phenyl-6-[(3-phenylazetidin-1-yl)methyl]-7h-imidazo[1,5-a]pyrazin-8-one]
7.04 | – | O=c1[nH]c(CN2CC(Oc3cccc(F)n3)C2)cn2c(C3CCOCC3)ncc12 [Compound 65, 6-[[3-[(6-fluoro-2-pyridyl)oxy]azetidin-1-yl]methyl]-3-tetrahydropyran-4-yl-7h-imidazo[1,5-a]pyrazin-8-one]
7.80 | – | O=c1[nH]c(CN2CC(Oc3ccc(OC(F)(F)F)cc3)C2)cn2c(-c3ccc(F)cc3)ncc12 [Compound 74, 3-(4-fluorophenyl)-6-[[3-[4-(trifluoromethoxy)phenoxy]azetidin-1-yl]methyl]-7h-imidazo[1,5-a]pyrazin-8-one]
7.66 | – | COC1CN(C(C)C2(C)Cn3c(cnc3C3CCOCC3)C(=O)N2)C1 (stereo not drawn) [Compound 112, 6-[1-(3-methoxyazetidin-1-yl)ethyl]-6-methyl-3-tetrahydropyran-4-yl-7h-imidazo[1,5-a]pyrazin-8-one]
7.74 | – | N#Cc1cccc(OC2CN(Cc3cn4c(-c5ccc(F)cc5)ncc4c(=O)[nH]3)C2)c1 [Compound 93, 3-[1-[[3-(4-fluorophenyl)-8-oxo-7h-imidazo[1,5-a]pyrazin-6-yl]methyl]azetidin-3-yl]oxybenzonitrile]
– | 7.55 | CC(c1cn2c(-c3ccccc3)ncc2c(=O)[nH]1)N1CC(Oc2ccccc2)C1 (stereo not drawn) [Compound 25, 6-[1-(3-phenoxyazetidin-1-yl)ethyl]-3-phenyl-7h-imidazo[1,5-a]pyrazin-8-one]
6.85 | – | O=c1[nH]c(CN2CCC(Oc3ccccc3)C2)cn2c(-c3ccc(F)cc3)ncc12 (stereo not drawn) [Compound 85, 3-(4-fluorophenyl)-6-[(3-phenoxypyrrolidin-1-yl)methyl]-7h-imidazo[1,5-a]pyrazin-8-one]
8.15 | – | CN(C)c1ccc(C2CN(Cc3cn4c(-c5ccc(F)cc5)ncc4c(=O)[nH]3)C2)cc1 [Compound 51, 6-[[3-(4-dimethylaminophenyl)azetidin-1-yl]methyl]-3-(4-fluorophenyl)-7h-imidazo[1,5-a]pyrazin-8-one]
